The values below come from the NIST ThermoML archive (doi:10.1016/j.fluid.2018.09.024).

Numbers after ± are expanded uncertainties.

The nature of this data set: activity coefficient (dimensionless); of the first substance listed, at infinite dilution; xn = mol fraction of the nth substance listed. Conditions: 101.33 kPa, Liquid, Chromatography, x1 = 0.

As for `C#CCCCCCC` [1-octyne] + CCCCCCCCCCCC[N+](C)(C)CCOc1ccccc1.N#C[N-]C#N, the activity coefficient (328.15 K) was 2.22 ± 0.15; the activity coefficient (338.15 K) amounted to 2.34 ± 0.16; the activity coefficient (348.15 K) turned out to be 2.46 ± 0.17; the activity coefficient (358.15 K) worked out at 2.57 ± 0.17; the activity coefficient (368.15 K) came to 2.68 ± 0.18; the activity coefficient (378.15 K) was determined as 2.8 ± 0.19.
Consider `C#CCCCCCC` [1-octyne] + CCCCCCCCCCCC[N+](C)(C)CCOc1ccccc1.O=S(=O)([N-]S(=O)(=O)C(F)(F)F)C(F)(F)F, for which the activity coefficient reads like this: (318.15 K) 1.69 ± 0.11; (328.15 K) 1.78 ± 0.12; (338.15 K) 1.86 ± 0.13; (348.15 K) 1.95 ± 0.13; (358.15 K) 2.03 ± 0.14; (368.15 K) 2.12 ± 0.14.
As to `C=CCCC` [1-pentene] + CCCCCCCCCCCC[N+](C)(C)CCOc1ccccc1.N#C[N-]C#N, the activity coefficient came out at 3.3 ± 0.22 (328.15 K); 3.36 ± 0.23 (338.15 K); 3.42 ± 0.23 (348.15 K); 3.48 ± 0.24 (358.15 K); 3.54 ± 0.24 (368.15 K); 3.61 ± 0.25 (378.15 K).
Take `C=CCCC` [1-pentene] + CCCCCCCCCCCC[N+](C)(C)CCOc1ccccc1.O=S(=O)([N-]S(=O)(=O)C(F)(F)F)C(F)(F)F: the activity coefficient (318.15 K) was 1.83 ± 0.12; the activity coefficient (328.15 K) was found to be 1.88 ± 0.13; the activity coefficient (338.15 K) was found to be 1.93 ± 0.13; the activity coefficient (348.15 K) is 1.98 ± 0.13; the activity coefficient (358.15 K) is 2.03 ± 0.14; the activity coefficient (368.15 K) worked out at 2.08 ± 0.14.
With `C#CCCC` [1-pentyne] + CCCCCCCCCCCC[N+](C)(C)CCOc1ccccc1.N#C[N-]C#N, the activity coefficient stood at 1.47 ± 0.1 (328.15 K); 1.53 ± 0.1 (338.15 K); 1.6 ± 0.11 (348.15 K); 1.66 ± 0.11 (358.15 K); 1.73 ± 0.12 (368.15 K); 1.79 ± 0.12 (378.15 K).
As to `C#CCCC` [1-pentyne] + CCCCCCCCCCCC[N+](C)(C)CCOc1ccccc1.O=S(=O)([N-]S(=O)(=O)C(F)(F)F)C(F)(F)F, the activity coefficient is 1.07 ± 0.07 (318.15 K); 1.13 ± 0.07 (328.15 K); 1.19 ± 0.08 (338.15 K); 1.25 ± 0.08 (348.15 K); 1.32 ± 0.09 (358.15 K); 1.39 ± 0.09 (368.15 K).
With `CC(C)CC(C)(C)C` [2,2,4-trimethylpentane] + CCCCCCCCCCCC[N+](C)(C)CCOc1ccccc1.N#C[N-]C#N, the activity coefficient reads like this: (328.15 K) 7.07 ± 0.48; (338.15 K) 7.15 ± 0.49; (348.15 K) 7.23 ± 0.49; (358.15 K) 7.32 ± 0.5; (368.15 K) 7.39 ± 0.5; (378.15 K) 7.47 ± 0.51.
On to `CC(C)CC(C)(C)C` [2,2,4-trimethylpentane] + CCCCCCCCCCCC[N+](C)(C)CCOc1ccccc1.O=S(=O)([N-]S(=O)(=O)C(F)(F)F)C(F)(F)F, for which the activity coefficient reads like this: (318.15 K) 3.66 ± 0.25; (328.15 K) 3.72 ± 0.25; (338.15 K) 3.77 ± 0.26; (348.15 K) 3.82 ± 0.26; (358.15 K) 3.86 ± 0.26; (368.15 K) 3.9 ± 0.27.
On to `CCC(C)(C)C` [2,2-dimethylbutane] + CCCCCCCCCCCC[N+](C)(C)CCOc1ccccc1.N#C[N-]C#N, for which the activity coefficient was determined as 5.84 ± 0.4 (328.15 K); 5.95 ± 0.41 (338.15 K); 6.05 ± 0.41 (348.15 K); 6.14 ± 0.42 (358.15 K); 6.25 ± 0.43 (368.15 K); 6.35 ± 0.43 (378.15 K).
As to `CCC(C)(C)C` [2,2-dimethylbutane] + CCCCCCCCCCCC[N+](C)(C)CCOc1ccccc1.O=S(=O)([N-]S(=O)(=O)C(F)(F)F)C(F)(F)F, the activity coefficient reads like this: (318.15 K) 2.82 ± 0.19; (328.15 K) 2.91 ± 0.2; (338.15 K) 2.99 ± 0.2; (348.15 K) 3.07 ± 0.21; (358.15 K) 3.15 ± 0.21; (368.15 K) 3.24 ± 0.22.
As to `CCOC(C)(C)C` [2-ethoxy-2-methylpropane] + CCCCCCCCCCCC[N+](C)(C)CCOc1ccccc1.N#C[N-]C#N, the activity coefficient worked out at 3.66 ± 0.25 (328.15 K); 3.74 ± 0.25 (338.15 K); 3.82 ± 0.26 (348.15 K); 3.9 ± 0.27 (358.15 K); 3.97 ± 0.27 (368.15 K); 4.03 ± 0.27 (378.15 K).
In the case of `CCOC(C)(C)C` [2-ethoxy-2-methylpropane] + CCCCCCCCCCCC[N+](C)(C)CCOc1ccccc1.O=S(=O)([N-]S(=O)(=O)C(F)(F)F)C(F)(F)F, the activity coefficient reads like this: (318.15 K) 1.8 ± 0.12; (328.15 K) 1.87 ± 0.13; (338.15 K) 1.94 ± 0.13; (348.15 K) 2.01 ± 0.14; (358.15 K) 2.09 ± 0.14; (368.15 K) 2.16 ± 0.15.
Regarding `CCC(C)(C)OC` [2-methoxy-2-methylbutane] + CCCCCCCCCCCC[N+](C)(C)CCOc1ccccc1.N#C[N-]C#N, the activity coefficient is, setting by setting: (328.15 K) 2.49 ± 0.17; (338.15 K) 2.56 ± 0.17; (348.15 K) 2.63 ± 0.18; (358.15 K) 2.69 ± 0.18; (368.15 K) 2.75 ± 0.19; (378.15 K) 2.81 ± 0.19.
`CCC(C)(C)OC` [2-methoxy-2-methylbutane] + CCCCCCCCCCCC[N+](C)(C)CCOc1ccccc1.O=S(=O)([N-]S(=O)(=O)C(F)(F)F)C(F)(F)F: the activity coefficient is, setting by setting: (318.15 K) 1.22 ± 0.08; (328.15 K) 1.29 ± 0.08; (338.15 K) 1.36 ± 0.09; (348.15 K) 1.43 ± 0.09; (358.15 K) 1.5 ± 0.1; (368.15 K) 1.56 ± 0.1.
`COC(C)(C)C` [2-methoxy-2-methylpropane] + CCCCCCCCCCCC[N+](C)(C)CCOc1ccccc1.N#C[N-]C#N: the activity coefficient turned out to be 2.28 ± 0.16 (328.15 K); 2.33 ± 0.16 (338.15 K); 2.38 ± 0.16 (348.15 K); 2.43 ± 0.17 (358.15 K); 2.48 ± 0.17 (368.15 K); 2.53 ± 0.17 (378.15 K).
Regarding `COC(C)(C)C` [2-methoxy-2-methylpropane] + CCCCCCCCCCCC[N+](C)(C)CCOc1ccccc1.O=S(=O)([N-]S(=O)(=O)C(F)(F)F)C(F)(F)F, the activity coefficient is, setting by setting: (318.15 K) 1.03 ± 0.06; (328.15 K) 1.09 ± 0.07; (338.15 K) 1.15 ± 0.07; (348.15 K) 1.21 ± 0.08; (358.15 K) 1.27 ± 0.08; (368.15 K) 1.33 ± 0.09.
Regarding `CC(C)CO` [2-methyl-1-propanol] + CCCCCCCCCCCC[N+](C)(C)CCOc1ccccc1.N#C[N-]C#N, the activity coefficient (328.15 K) stood at 0.451 ± 0.036; the activity coefficient (338.15 K) stood at 0.46 ± 0.036; the activity coefficient (348.15 K) amounted to 0.469 ± 0.037; the activity coefficient (358.15 K) was 0.477 ± 0.037; the activity coefficient (368.15 K) was 0.486 ± 0.037; the activity coefficient (378.15 K) came out at 0.494 ± 0.038.
`CC(C)CO` [2-methyl-1-propanol] + CCCCCCCCCCCC[N+](C)(C)CCOc1ccccc1.O=S(=O)([N-]S(=O)(=O)C(F)(F)F)C(F)(F)F: the activity coefficient runs as follows: (318.15 K) 1.4 ± 0.09; (328.15 K) 1.33 ± 0.09; (338.15 K) 1.26 ± 0.08; (348.15 K) 1.21 ± 0.08; (358.15 K) 1.16 ± 0.07; (368.15 K) 1.12 ± 0.07.
On to `CC(C)(C)O` [2-methylpropan-2-ol] + CCCCCCCCCCCC[N+](C)(C)CCOc1ccccc1.N#C[N-]C#N, for which the activity coefficient is, setting by setting: (328.15 K) 0.539 ± 0.039; (338.15 K) 0.554 ± 0.04; (348.15 K) 0.569 ± 0.041; (358.15 K) 0.584 ± 0.041; (368.15 K) 0.598 ± 0.042; (378.15 K) 0.613 ± 0.043.
Turning to `CC(C)(C)O` [2-methylpropan-2-ol] + CCCCCCCCCCCC[N+](C)(C)CCOc1ccccc1.O=S(=O)([N-]S(=O)(=O)C(F)(F)F)C(F)(F)F, the activity coefficient turned out to be 1.14 ± 0.07 (318.15 K); 1.1 ± 0.07 (328.15 K); 1.06 ± 0.07 (338.15 K); 1.02 ± 0.06 (348.15 K); 0.986 ± 0.062 (358.15 K); 0.952 ± 0.06 (368.15 K).
For `CCC(C)CC` [3-methylpentane] + CCCCCCCCCCCC[N+](C)(C)CCOc1ccccc1.N#C[N-]C#N, the activity coefficient (328.15 K) amounted to 5.3 ± 0.36; the activity coefficient (338.15 K) was 5.37 ± 0.37; the activity coefficient (348.15 K) came out at 5.41 ± 0.37; the activity coefficient (358.15 K) came to 5.46 ± 0.37; the activity coefficient (368.15 K) was found to be 5.5 ± 0.37; the activity coefficient (378.15 K) is 5.5 ± 0.37.
For the molecule `CCC(C)CC` [3-methylpentane] + CCCCCCCCCCCC[N+](C)(C)CCOc1ccccc1.O=S(=O)([N-]S(=O)(=O)C(F)(F)F)C(F)(F)F, the activity coefficient by setting is: (318.15 K) 2.74 ± 0.19; (328.15 K) 2.81 ± 0.19; (338.15 K) 2.88 ± 0.2; (348.15 K) 2.95 ± 0.2; (358.15 K) 3.01 ± 0.2; (368.15 K) 3.07 ± 0.21.
As to `C=C(C)c1ccccc1` [(1-methylethenyl)benzene] + CCCCCCCCCCCC[N+](C)(C)CCOc1ccccc1.N#C[N-]C#N, the activity coefficient was 1.11 ± 0.07 (328.15 K); 1.18 ± 0.08 (338.15 K); 1.25 ± 0.08 (348.15 K); 1.32 ± 0.09 (358.15 K); 1.39 ± 0.09 (368.15 K); 1.46 ± 0.1 (378.15 K).
For `C=C(C)c1ccccc1` [(1-methylethenyl)benzene] + CCCCCCCCCCCC[N+](C)(C)CCOc1ccccc1.O=S(=O)([N-]S(=O)(=O)C(F)(F)F)C(F)(F)F, the activity coefficient runs as follows: (318.15 K) 0.784 ± 0.051; (328.15 K) 0.831 ± 0.054; (338.15 K) 0.881 ± 0.056; (348.15 K) 0.931 ± 0.059; (358.15 K) 0.985 ± 0.062; (368.15 K) 1.03 ± 0.06.
